From PubChem BioAssay (NCI)
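Dose response: 5 concentrations. Exposure: 48 h. Format: 96-well plates. Endpoint: linear interpolation; highest concentration if not reached. GI50 is the concentration that inhibits growth by half. TGI: total growth inhibition.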

Key:
Experiment in all cases: NCI anticancer screen, dose series, 48 h
U251 CNS = test system: U251 CNS
COLO 205 colon = test system: COLO 205 colon
RXF 393 renal = test system: RXF 393 renal
HCT-116 colon = test system: HCT-116 colon
SF-268 CNS = test system: SF-268 CNS
MOLT-4 leukemia = test system: MOLT-4 leukemia
OVCAR-4 ovarian = test system: OVCAR-4 ovarian
SR leukemia = test system: SR leukemia
HCC-2998 colon = test system: HCC-2998 colon
SF-539 CNS = test system: SF-539 CNS
CAKI-1 renal = test system: CAKI-1 renal
A549 NSCLC = test system: A549 NSCLC
MALME-3M melanoma = test system: MALME-3M melanoma
NCI-H522 lung = test system: NCI-H522 lung
SNB-75 CNS = test system: SNB-75 CNS
IGROV1 ovarian = test system: IGROV1 ovarian
NCI-H226 lung = test system: NCI-H226 lung
K-562 leukemia = test system: K-562 leukemia
CCRF-CEM leukemia = test system: CCRF-CEM leukemia
EKVX NSCLC = test system: EKVX NSCLC
A498 renal = test system: A498 renal
SK-MEL-2 melanoma = test system: SK-MEL-2 melanoma
LOX IMVI melanoma = test system: LOX IMVI melanoma
SW-620 colon = test system: SW-620 colon
RPMI-8226 leukemia = test system: RPMI-8226 leukemia
KM12 colon = test system: KM12 colon
MDA-MB-435 = test system: MDA-MB-435
M14 melanoma = test system: M14 melanoma
DU-145 prostate = test system: DU-145 prostate
OVCAR-8 ovarian = test system: OVCAR-8 ovarian
HOP-92 NSCLC = test system: HOP-92 NSCLC
TK-10 renal = test system: TK-10 renal
786-0 renal = test system: 786-0 renal
SK-MEL-5 melanoma = test system: SK-MEL-5 melanoma
MCF7 breast = test system: MCF7 breast
UACC-62 melanoma = test system: UACC-62 melanoma
BT-549 breast = test system: BT-549 breast
SK-OV-3 ovarian = test system: SK-OV-3 ovarian
PC-3 prostate = test system: PC-3 prostate
SF-295 CNS = test system: SF-295 CNS
NCI-H460 lung = test system: NCI-H460 lung
OVCAR-3 ovarian = test system: OVCAR-3 ovarian
SK-MEL-28 melanoma = test system: SK-MEL-28 melanoma
HT29 colon = test system: HT29 colon
HCT-15 colon = test system: HCT-15 colon
UO-31 renal = test system: UO-31 renal
NCI-H23 lung = test system: NCI-H23 lung
NCI/ADR-RES ovarian = test system: NCI/ADR-RES ovarian
SN12C renal = test system: SN12C renal
HOP-62 NSCLC = test system: HOP-62 NSCLC
T-47D breast = test system: T-47D breast
UACC-257 melanoma = test system: UACC-257 melanoma
MDA-MB-231 breast = test system: MDA-MB-231 breast
OVCAR-5 ovarian = test system: OVCAR-5 ovarian
SNB-19 CNS = test system: SNB-19 CNS
ACHN renal = test system: ACHN renal
HS 578T breast = test system: HS 578T breast
HL-60(TB) leukemia = test system: HL-60(TB) leukemia

Q: `COc1ccc(/C=C/C(=O)c2cc3c(N)c(C(=O)Nc4cccc(Cl)c4C)sc3nc2C)cc1` was tested. Which GI50 (U251 CNS) did it give?
A: 201 nM

Q: What about the TGI (U251 CNS) of the same compound?
A: 4.36 µM

Q: What about the GI50 (COLO 205 colon) of the same compound?
A: 169 nM

Q: And the TGI (COLO 205 colon)?
A: 751 nM

Q: What about the GI50 (RXF 393 renal) of the same compound?
A: 102 nM

Q: And the TGI (RXF 393 renal)?
A: 324 nM

Q: What about the GI50 (HCT-116 colon) of the same compound?
A: 188 nM

Q: And the GI50 (SF-268 CNS)?
A: 680 nM

Q: What about the TGI (SF-268 CNS) of the same compound?
A: > 50 µM

Q: And the GI50 (MOLT-4 leukemia)?
A: 312 nM

Q: And the TGI (MOLT-4 leukemia)?
A: > 50 µM

Q: What about the GI50 (OVCAR-4 ovarian) of the same compound?
A: 732 nM

Q: And the TGI (OVCAR-4 ovarian)?
A: > 50 µM

Q: What about the GI50 (SR leukemia) of the same compound?
A: 196 nM

Q: What about the TGI (SR leukemia) of the same compound?
A: > 50 µM

Q: What about the GI50 (HCC-2998 colon) of the same compound?
A: 350 nM

Q: And the TGI (HCC-2998 colon)?
A: 2920 nM

Q: What about the GI50 (SF-539 CNS) of the same compound?
A: 122 nM

Q: And the TGI (SF-539 CNS)?
A: 324 nM

Q: And the GI50 (CAKI-1 renal)?
A: 284 nM

Q: And the TGI (CAKI-1 renal)?
A: > 26.7 µM

Q: What about the GI50 (A549 NSCLC) of the same compound?
A: 261 nM

Q: What about the TGI (A549 NSCLC) of the same compound?
A: > 50 µM

Q: And the GI50 (MALME-3M melanoma)?
A: 1250 nM

Q: And the TGI (MALME-3M melanoma)?
A: > 50 µM

Q: And the GI50 (NCI-H522 lung)?
A: 126 nM

Q: And the GI50 (SNB-75 CNS)?
A: 147 nM

Q: And the GI50 (IGROV1 ovarian)?
A: 251 nM

Q: What about the TGI (IGROV1 ovarian) of the same compound?
A: > 50 µM

Q: And the GI50 (NCI-H226 lung)?
A: 372 nM

Q: What about the TGI (NCI-H226 lung) of the same compound?
A: 4.75 µM

Q: And the GI50 (K-562 leukemia)?
A: 181 nM

Q: What about the TGI (K-562 leukemia) of the same compound?
A: > 50 µM

Q: And the GI50 (CCRF-CEM leukemia)?
A: 205 nM

Q: And the TGI (CCRF-CEM leukemia)?
A: > 35.3 µM

Q: What about the GI50 (EKVX NSCLC) of the same compound?
A: 384 nM

Q: And the TGI (EKVX NSCLC)?
A: > 50 µM

Q: What about the GI50 (A498 renal) of the same compound?
A: 174 nM

Q: And the TGI (A498 renal)?
A: 781 nM

Q: What about the GI50 (SK-MEL-2 melanoma) of the same compound?
A: 389 nM

Q: And the TGI (SK-MEL-2 melanoma)?
A: > 50 µM

Q: And the GI50 (LOX IMVI melanoma)?
A: 243 nM

Q: What about the TGI (LOX IMVI melanoma) of the same compound?
A: 1250 nM

Q: What about the GI50 (SW-620 colon) of the same compound?
A: 219 nM

Q: What about the TGI (SW-620 colon) of the same compound?
A: > 50 µM

Q: What about the GI50 (RPMI-8226 leukemia) of the same compound?
A: 187 nM

Q: What about the TGI (RPMI-8226 leukemia) of the same compound?
A: 1490 nM

Q: What about the GI50 (KM12 colon) of the same compound?
A: 214 nM

Q: What about the TGI (KM12 colon) of the same compound?
A: 6.82 µM

Q: And the GI50 (MDA-MB-435)?
A: 90.8 nM

Q: And the TGI (MDA-MB-435)?
A: 258 nM

Q: What about the GI50 (M14 melanoma) of the same compound?
A: 146 nM

Q: And the TGI (M14 melanoma)?
A: > 50 µM

Q: And the GI50 (DU-145 prostate)?
A: 218 nM

Q: And the TGI (DU-145 prostate)?
A: > 50 µM

Q: And the GI50 (OVCAR-8 ovarian)?
A: 244 nM

Q: What about the TGI (OVCAR-8 ovarian) of the same compound?
A: > 50 µM

Q: What about the GI50 (HOP-92 NSCLC) of the same compound?
A: 876 nM

Q: What about the TGI (HOP-92 NSCLC) of the same compound?
A: 10.6 µM

Q: What about the GI50 (TK-10 renal) of the same compound?
A: 965 nM

Q: What about the TGI (TK-10 renal) of the same compound?
A: > 50 µM

Q: And the GI50 (786-0 renal)?
A: 411 nM

Q: And the TGI (786-0 renal)?
A: > 13.6 µM

Q: What about the GI50 (SK-MEL-5 melanoma) of the same compound?
A: 192 nM

Q: What about the TGI (SK-MEL-5 melanoma) of the same compound?
A: 881 nM

Q: And the GI50 (MCF7 breast)?
A: 196 nM

Q: And the TGI (MCF7 breast)?
A: > 50 µM

Q: What about the GI50 (UACC-62 melanoma) of the same compound?
A: 267 nM

Q: And the TGI (UACC-62 melanoma)?
A: > 50 µM

Q: And the GI50 (BT-549 breast)?
A: 606 nM

Q: And the TGI (BT-549 breast)?
A: 4.25 µM

Q: What about the GI50 (SK-OV-3 ovarian) of the same compound?
A: 300 nM

Q: What about the TGI (SK-OV-3 ovarian) of the same compound?
A: > 50 µM

Q: And the GI50 (PC-3 prostate)?
A: 209 nM

Q: What about the TGI (PC-3 prostate) of the same compound?
A: > 50 µM

Q: What about the GI50 (SF-295 CNS) of the same compound?
A: 295 nM

Q: What about the TGI (SF-295 CNS) of the same compound?
A: > 50 µM

Q: What about the GI50 (NCI-H460 lung) of the same compound?
A: 190 nM

Q: What about the TGI (NCI-H460 lung) of the same compound?
A: 5.04 µM

Q: What about the GI50 (OVCAR-3 ovarian) of the same compound?
A: 160 nM

Q: What about the TGI (OVCAR-3 ovarian) of the same compound?
A: 842 nM

Q: What about the GI50 (SK-MEL-28 melanoma) of the same compound?
A: 6.1 µM

Q: What about the TGI (SK-MEL-28 melanoma) of the same compound?
A: > 50 µM

Q: And the GI50 (HT29 colon)?
A: 170 nM

Q: What about the TGI (HT29 colon) of the same compound?
A: > 50 µM

Q: And the GI50 (HCT-15 colon)?
A: 185 nM

Q: And the TGI (HCT-15 colon)?
A: > 50 µM

Q: And the GI50 (UO-31 renal)?
A: 406 nM

Q: What about the TGI (UO-31 renal) of the same compound?
A: > 25.6 µM

Q: What about the GI50 (NCI-H23 lung) of the same compound?
A: 206 nM

Q: What about the GI50 (NCI/ADR-RES ovarian) of the same compound?
A: 127 nM

Q: And the TGI (NCI/ADR-RES ovarian)?
A: 381 nM

Q: What about the GI50 (SN12C renal) of the same compound?
A: 362 nM

Q: And the TGI (SN12C renal)?
A: > 50 µM

Q: And the GI50 (HOP-62 NSCLC)?
A: 288 nM

Q: What about the TGI (HOP-62 NSCLC) of the same compound?
A: > 50 µM

Q: And the GI50 (T-47D breast)?
A: 291 nM

Q: And the TGI (T-47D breast)?
A: > 50 µM

Q: What about the GI50 (UACC-257 melanoma) of the same compound?
A: 6 µM

Q: What about the TGI (UACC-257 melanoma) of the same compound?
A: > 50 µM

Q: And the GI50 (MDA-MB-231 breast)?
A: 327 nM

Q: What about the TGI (MDA-MB-231 breast) of the same compound?
A: > 50 µM

Q: What about the GI50 (OVCAR-5 ovarian) of the same compound?
A: 350 nM

Q: And the TGI (OVCAR-5 ovarian)?
A: > 50 µM

Q: And the GI50 (SNB-19 CNS)?
A: 262 nM

Q: What about the TGI (SNB-19 CNS) of the same compound?
A: > 50 µM

Q: And the GI50 (ACHN renal)?
A: 330 nM

Q: And the TGI (ACHN renal)?
A: > 50 µM

Q: What about the GI50 (HS 578T breast) of the same compound?
A: 173 nM

Q: What about the TGI (HS 578T breast) of the same compound?
A: > 50 µM

Q: And the GI50 (HL-60(TB) leukemia)?
A: 140 nM

Q: What about the TGI (HL-60(TB) leukemia) of the same compound?
A: 460 nM
